Data set [1] relates to mPTP. Briefly: mPTP human platelet mitochondria membrane potential flow cytometry assay. The class given is cell-based. The note with it: stimulated human platelets. The procedure:
The mPTP cell based assay was performed using a mitochondria membrane potential flow cytometry assay in stimulated human platelets. Simulation of platelets results in the rapid influx of Ca^2+ across the platelet membrane. The Ca^2+ is then sequestered by mitochondria until the threshold for mPTP opening is reached, at which point the pore opens and the mitochondrial membrane potential is dissipated. Changes in mitochondria membrane potential due to mPTP opening can be quantified in live platelets using standard mitochondrial membrane potential dyes e.g. 3,3′-dihexyloxacarbocyanine Iodide; DiOC6 (3), enabling pharmacological characterisation of mPTP inhibitors.
Fresh human blood (20 ml) was collected from consented donors into 3.2% sodium citrate. Platelets were isolated by centrifugation at 200 g for 20 min at room temperature, then the platelet rich plasma layer transferred to a fresh tube. Prostaglandin 12 is added to the platelets at a final concentration of 20 ng/ml. After centrifugation at 640 g for 10 min, the platelet rich pellet was resuspended in 4 ml HEPES assay buffer (137 mM NaCl, 2.7 mM KCl, 11.9 mM NaHCO3, 0.42 mM NaH2PO4, 1 mM MgCl2, 5.5 mM glucose, 0.1% bovine serum albumin, 10 mM HEPES adjusted to pH 7.4) and stored on ice.
Test compounds were prepared from 10 mM stocks in DMSO and serially diluted in assay buffer containing 0.4% DMSO and 25 μl transferred into a 96 well plate. Platelets were loaded with the mitochondrial membrane potential dye DiOC6 (3) (3,3′-dihexyloxacarbocyanine Iodide; Invitrogen) at 200 nM for 30 min, then 50 μl plated into each well of the 96 well plate containing diluted test compound and incubated for 15 min. Control wells included DMSO (0.1% final concentration) only or 5 μM cyclosporin A. Platelets were then stimulation with the addition of assay buffer (25 μl) containing CaCl2, alpha thrombin and Convulxin to achieve a final concentrations of 2 mM, 0.017 U/ml and 0.167 μg/ml respectively and incubated for 14 min. The reaction was stopped by the addition of 25 μl 15 mM EDTA in assay buffer. The mitochondrial membrane potential across the population of platelets in each well was then quantified by flow cytometry using a Guava easyCyte 5 Benchtop Flow Cytometer with 3000 events per well. The percentage of platelets with a depolarised mitochondrial membrane potential was calculated for each well. A pIC50 for each compound was then calculated using a standard four parameter curve fit model (GraphPad Prism).
In general terms: Flow cytometry measures light scatter and fluorescence of single cells or particles in a stream.

In data set [2] the test system is mPTP. In words: mPTP activity assay in isolated rat brain mitochondria. The class given is biochemical. The note with it: isolated rat brain mitochondria. The procedure:
MPTP activity was measured in brain mitochondria freshly isolated from female Sprague Dawley (250 to 300 gram) rats. Anaesthetised rats were perfused in-situ with ˜40 ml cold Dulbecco's Phosphate Buffered Saline (DPBS), then brains dissected and transferred into 30 ml Isolation Buffer (225 mM mannitol, 75 mM sucrose, 1 mM EGTA, adjusted to pH 7.4 with 1 M NaOH). The brain was minced using tweezers and a scalpel into ˜5 mm pieces then transferred into a 50 ml Potterton Dounce homogenization tube on ice containing 10 ml ice-cold isolation buffer (as above with addition of Complete Protease inhibitor; 1 tablet per 50 ml buffer). Homogenisation was carried out using a teflon pestle at 1800 rpm. The slurry was centrifuged at 2000 g for 10 min at 4° C., then the supernatant centrifuged at 12,000 g for 9 min. The pellet was resuspended with a dounce homogeniser in isolation buffer as above but with the addition of 0.02% digitonin, centrifuged at 12,000 g for 11 min and finally resuspended in 5 ml modified isolation buffer (as above but with EGTA reduced to 0.1 mM).
Test compounds were prepared in 384 well polypropylene assay plates as described above for the liver mitochondria assay. A stock mitochondria/Fluo5N assay solution was prepared in 5.6 ml assay buffer (120 mM mannitol, 40 mM MOPS, 5 mM KH2PO4, 60 mM KCl, 10 mM pyruvate, 2 mM malate, 2 mM MgCl2, 20 μM ADP, 1.26 μM oligomycin A, adjusted to pH 7.4) supplemented with Fluo5N pentapotassium salt (2 μM) and 1 ml mitochondria suspension, then transferred (15 μl) into the assay plate containing test compounds and incubated for 10 min at RT. Assay plates were then transferred to a FLIPR Tetra plate reader (Molecular Devices). Dye fluorescence was then measured every 3 sec for a total of 10 min. After 12 sec, a 2.5 μl bolus of Ca2+(75 μM) was added from a source plate containing 675 μM CaCl2 in FLIPR assay buffer. IC50 values for test compounds were calculated using the fluorescence value collected at the 10 min timepoint with % inhibition calculated using the DMSO control and cyclosporin A values at […].

Data set [3] relates to mPTP. In words: mPTP activity assay in isolated rat liver mitochondria (Ca2+ retention, Fluo5N, FLIPR). The class given is biochemical. The note with it: isolated rat liver mitochondria; average value from multiple experiments (n ≥ 2). Summed up: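 Freshly isolated female Sprague Dawley rat liver mitochondria in pH 7.4 buffer with 10 mM succinate, 1 μM rotenone and 2 μM Fluo5N, preincubated 10 min at RT with compound (30 μM to 1 nM). CaCl2 bolus (75 μM) added; IC50 from 10 min fluorescence, normalised to DMSO and 5 μM cyclosporin A.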

A short description of data set [4]: PBS solubility. Conditions: aqueous buffer, kinetic from dmso stock; PBS pH 7.4, 2 hr at 25° C. The class given is physicochemical. Summed up:
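Compound from 10 mM DMSO stock was added in duplicate to FaSSIF or PBS (pH 7.4) and shaken at 1100 rpm for 2 hr at 25 °C. After filtration, the filtrate was quantified by LC-MS/MS with internal standard against a standard of known concentration.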

Data set [5] is described as follows: Microsomal clearance assay, rat liver microsomes. The class given is in vitro ADME. The note with it: average value from two experiments, read-out: Rat liver microsomes intrinsic clearance (CLint). Here is the method: The microsomal stability of test compounds was evaluated using rat liver microsomes (BioIVT) with and without the cofactors nicotinamide adenine dinucleotide phosphate (NADPH) and uridine-diphosphate-glucuronic acid (UDPGA). Reactions were performed in a final volume of 250 μl pre-warmed (37° C.) 100 mM phosphate buffer containing 5 mM MgCl2, 0.025 mg/ml alamethicin, and 0.5 mg/ml rat liver microsomes. NADPH and UDPGA were included at 1 mM and 2 mM respectively, where appropriate. Reactions were started with the addition of 1 μM (final concentration) test compound. Verapamil was used as the positive control. Solutions were incubated in a water bath at 37° C. and aliquots collected at 0.5, 5, 15, 30 and 60 min. Reactions were stopped by the addition of 5 volumes of cold acetonitrile with internal standards (200 nM caffeine and 100 nM tolbutamide). Samples were centrifuged at 3220 g for 40 min. An aliquot of supernatant was diluted 1:1 In ultra-pure H20, then used for LC-MS/MS analysis. Peak areas were determined from extracted ion chromatograms. The slope value, k, was determined by linear regression of the natural logarithm of the remaining percentage of the parent drug vs. incubation time curve. The in vitro half-life (in vitro t1/2) was determined from the slope value: in vitro t1/2=0.693/k. Conversion of the in vitro t1/2 (min) into the in vitro intrinsic clearance (in vitro CLint, in μL/min/mg protein) was done using the following equation (mean of duplicate determinations): in vitro Clint=(0.693/t1/2)*(Vol of incubation (μl)/amount of protein (mg)).
In general terms: Liver microsomes are a subcellular fraction often used to study metabolism.

Converted amounts (≈) assume the structure as drawn.

The values that follow come from patent publication US12497359B2, “Acrylamide derivatives” (NRG Therapeutics Ltd, priority 2020, dated 2025).

`Cc1c(F)cccc1NC(=O)/C=C/c1ccc2cn[nH]c2c1` [Comparative Example 1, (E)-N-(2-methyl-3-fluorophenyl)-3-(1H-indazol-6-yl)acrylamide, reference compound]: in data set [1], the “mPTP Human platelets pIC50” value was 6.9. Besides, the “mPTP Rat brain pIC50” value in data set [2] is reported as 7.6. In data set [3], the “mPTP Rat liver pIC50*” value is 8.0.
In general, solubility refers to how much of the substance goes into solution per volume. Turning to `O=C(/C=C/c1ccc2cn[nH]c2c1)NC1CCc2ccc(F)cc21` (stereo not shown) [Example 6, (E)-N-(6-fluoro-2,3-dihydro-1H-inden-1-yl)-3-(1H-indazol-6-yl)acrylamide], in data set [1], the “mPTP Human platelets pIC50” value turned out to be 4.9. In data set [4], this molecule came in with a solubility at 2 h of 9.1 µM (≈ 2.92 µg/mL). In data set [5], the microsomal CLint at 1 µM came to 59 µL/min/mg. In addition, the “mPTP Rat liver pIC50*” value in data set [3] worked out at 6.0.
